Data: PMC10233829 (ACS Omega, 2023)
In brackets after ≈: the same amount, converted by molar mass.

Assays:
[1] = test system: P. aeruginosa 659; assay: MIC, twofold microdilution, clinical strain; type: cell-based; details: Pseudomonas aeruginosa, 18 h
[2] = test system: P. aeruginosa 37; assay: MIC, twofold microdilution, clinical strain; type: cell-based; details: Pseudomonas aeruginosa, 18 h
[3] = test system: S. aureus 5595; assay: MIC, twofold microdilution, clinical strain; type: cell-based; details: Staphylococcus aureus, 18 h
[4] = test system: S. aureus 180; assay: MIC, twofold microdilution, clinical strain; type: cell-based; details: Staphylococcus aureus, 18 h
[5] = test system: E. coli 520; assay: MIC, twofold microdilution, clinical strain; type: cell-based; details: Escherichia coli, 18 h
[6] = test system: S. aureus ATCC 25923; assay: MIC, twofold microdilution, standard strain; type: cell-based; details: Staphylococcus aureus, ATCC25923, 18 h
[7] = test system: S. epidermidis KR4243/1; assay: MIC, twofold microdilution, clinical strain; type: cell-based; details: Staphylococcus epidermidis, 18 h
[8] = test system: P. aeruginosa ATCC 15442 and E. coli ATCC 25922; assay: MIC, standard Gram-negative rods as a panel; type: cell-based; details: P. aeruginosa ATCC 15442, E. coli ATCC 25922; read-out: MIC against standard Gram-negative rods (range over strains)
[9] = test system: S. epidermidis 4341; assay: MIC, twofold microdilution, clinical strain; type: cell-based; details: Staphylococcus epidermidis, 18 h
[10] = MTT assay, cytotoxic activity; type: cell-based; details: human, HaCaT cells (immortal keratinocytes); MTT, 72 h, normal cell line; read-out: IC50 HaCaT
Protocol: (§1) Cells were seeded in 6 mL medium in a tissue culture flask (50 mL) in a 37 °C/5% CO2 humidified incubator. […] MTT analysis was performed according to a previous study.[59] Untreated cells were used as controls. Cell absorbance results were inserted into the formula for the relative MTT level (%). It allows to calculate the viability of cells under the influence of the tested compounds. Cell viability was expressed as the percentage of MTT reduction in cells treated with tested compounds compared to the control sample. The relative MTT level was calculated using the formula [100%] = A/B × 100% where A—the test sample absorbance and B—the control sample absorbance.

[11] = test system: M. tuberculosis Spec 210; assay: microbe, parasite or virus in culture; type: cell-based, Mycobacterium tuberculosis; details: M. tuberculosis Spec. 210
[12] = test system: M. tuberculosis H37Rv; assay: Tuberculostatic activity, Microplate Alamar Blue Assay (MIC); type: cell-based, Mycobacterium tuberculosis; details: Mycobacterium tuberculosis, H37RV; MABA; read-out: MIC M. tuberculosis H37Rv
[13] = test system: S. epidermidis ATCC 35984; assay: MIC, twofold microdilution, standard strain; type: cell-based; details: Staphylococcus epidermidis, ATCC35984, 18 h
[14] = test system: S. epidermidis ATCC 12228; assay: MIC, twofold microdilution, standard strain; type: cell-based; details: Staphylococcus epidermidis, ATCC12228, 18 h
[15] = test system: S. aureus NCTC 4163; assay: MIC, twofold microdilution, standard strain; type: cell-based; details: Staphylococcus aureus, NCTC4163, 18 h
[16] = test system: E. coli ATCC 25922; assay: MIC, twofold microdilution, standard strain; type: cell-based, Escherichia coli; details: Escherichia coli, ATCC25922; standard strain, 18 h
[17] = test system: M. tuberculosis Spec. 192; assay: Tuberculostatic activity, Microplate Alamar Blue Assay (MIC); type: cell-based; details: Mycobacterium tuberculosis, MABA, read-out: MIC M. tuberculosis Spec. 192 (sensitive to tuberculostatics)
[18] = test system: E. coli 600; assay: MIC, twofold microdilution, clinical strain; type: cell-based, Escherichia coli; details: 18 h
[19] = test system: S. aureus ATCC 6538; assay: MIC, twofold microdilution, standard strain; type: cell-based, Staphylococcus aureus; details: Staphylococcus aureus, ATCC6538; standard strain, 18 h
[20] = test system: S. epidermidis 5253; assay: MIC, twofold microdilution, clinical strain; type: cell-based, Staphylococcus epidermidis; details: Staphylococcus epidermidis, 5253, 18 h
[21] = test system: S. aureus ATCC 29213; assay: MIC, twofold microdilution, standard strain; type: cell-based; details: Staphylococcus aureus, ATCC29213, 18 h
[22] = test system: E. cloacae 8; assay: MIC, twofold microdilution, clinical strain; type: cell-based, Escherichia cloacae; details: Enterobacter cloacae, 8; clinical strain, 18 h
[23] = test system: S. aureus T5591; assay: MIC, twofold microdilution, clinical strain; type: cell-based, Staphylococcus aureus
[24] = test system: PC3 cells; assay: MTT assay, cytotoxic activity; type: cell-based, human; details: Homo sapiens, PC-3, 72 h, MTT, 72 h
Protocol: as §1, with “Metastatic prostate cancer (PC3) and human immortal keratinocyte (HaCaT) cell lines were purchased from the American Type Culture Collection (ATCC, Rockville, MD, USA) and cultured in MEM (minimal essential medium, Thermo Sci, USA), RPMI 1640 (Roswell Park Memorial Institute, Biowest SAS, France), and DMEM (Dulbecco’s Modified Eagle’s Medium, Biowest SAS, France). Cells” for “Cells”

[25] = test system: K. pneumoniae 28; assay: MIC, twofold microdilution, clinical strain; type: cell-based; details: Klebsiella pneumoniae, 18 h
[26] = test system: E. coli 951; assay: MIC, twofold microdilution, clinical strain; type: cell-based; details: Escherichia coli, 18 h
[27] = test system: clinical bacterial strains; assay: MIC, clinical isolates as groups of strains; type: cell-based
[28] = test system: K. pneumoniae 510; assay: MIC, twofold microdilution, clinical strain; type: cell-based, Klebsiella pneumoniae; details: Klebsiella pneumoniae, 510; clinical strain, 18 h
[29] = test system: S. aureus T5595; assay: MIC, twofold microdilution, clinical strain; type: cell-based, Staphylococcus aureus
[30] = test system: P. aeruginosa ATCC 15442; assay: MIC, twofold microdilution, standard strain; type: cell-based, Pseudomonas aeruginosa; details: Pseudomonas aeruginosa, ATCC15442; standard strain, 18 h
[31] = test system: S. pasteuri KR 4358; assay: MIC, twofold microdilution, clinical strain; type: cell-based; details: Staphylococcus pasteuri, KR4358, 18 h
[32] = molecular target: T1, S. aureus topoisomerase IV (Staphylococcus aureus, UniProt P0C1S7+P0C1U9); assay: Topoisomerase IV decatenation assay; type: biochemical; details: IC50 S. aureus topoisomerase IV, decatenation of kinetoplast DNA
T1 construct: purchased Inspiralis, Norwich, UK

O=C(O)c1cn(C2CC2)c2cc(N3CCN(C(=O)CCBr)CC3)c(F)cc2c1=O [Compound 9, 7-[4-(3-Bromopropionyl)-piperazin-1-yl]-1-cyclopropyl-6-fluoro-4-oxo-1,4-dihydro-quinoline-3-carboxylic Acid]
MIC [1]: > 25.6 µg/mL | MIC [2]: 128 µg/mL (≈ 274 µM) | MIC [3]: 0.5 µg/mL (≈ 1.07 µM) | MIC [4]: 0.5 µg/mL (≈ 1.07 µM) | MIC [5]: 0.8 µg/mL (≈ 1.72 µM) | MIC [6]: 0.2 µg/mL (≈ 0.429 µM) | MIC [7]: 0.1 µg/mL (≈ 0.214 µM) | MIC [8]: ≤ 1 µg/mL | MIC [9]: 16 µg/mL (≈ 34.3 µM) | IC50 at 72 h [10]: > 100 µM | fold more effective than the reference tuberculostatics [11]: 8–32 fold | MIC [12]: 2 µg/mL (≈ 4.29 µM) | MIC [13]: 0.2 µg/mL (≈ 0.429 µM) | MIC [14]: 0.2 µg/mL (≈ 0.429 µM) | MIC [15]: 0.1 µg/mL (≈ 0.214 µM) | MIC [16]: 0.4 µg/mL (≈ 0.858 µM) | MIC [17]: 2 µg/mL (≈ 4.29 µM) | MIC E. coli 600 [18]: –0.4 μg/mL | MIC [19]: 0.2 µg/mL (≈ 0.429 µM) | MIC [20]: 128 µg/mL (≈ 274 µM) | MIC [21]: 0.2 µg/mL (≈ 0.429 µM) | MIC [22]: 2 µg/mL (≈ 4.29 µM) | MIC S. aureus T5591 ([23]; 18 h): 0.1 µg/mL (≈ 0.214 µM) | MIC ([23]; Staphylococcus aureus, T5591, 18 h): 0.1 to 0.2 µg/mL (≈ 0.214 to 0.429 µM) | IC50 [24]: 69.1 ± 5.8 µM | MIC [25]: > 25.6 µg/mL | MIC [26]: 64 µg/mL (≈ 137 µM) | times more powerful than CP ([27]; S. aureus T5595 and T5591): 1.25–2.5 times | MIC ([27]; clinical strains, read-out: MIC against selected E. coli and E. cloacae strains): 0.1 to 0.8 µg/mL (≈ 0.214 to 1.72 µM) | MIC [28]: > 25.6 µg/mL | MIC S. aureus T5595 ([29]; 18 h): 0.2 µg/mL (≈ 0.429 µM) | MIC ([29]; Staphylococcus aureus, T5595, 18 h): 0.1 to 0.2 µg/mL (≈ 0.214 to 0.429 µM) | MIC [30]: 12.8 µg/mL (≈ 27.4 µM) | MIC [31]: 0.2 µg/mL (≈ 0.429 µM)

COc1c(N2C[C@@H]3CCCN[C@@H]3C2)c(F)cc2c(=O)c(C(=O)O)cn(C3CC3)c12 [MXF, moxifloxacin, reference compound]
IC50 [32]: 3.74 µM
